Measurements from patent US20240358683A1, “COMPOSITION FOR PREVENTING OR TREATING NEURODEGENERATIVE DISEASE COMPRISING COMPOUND INDUCING EXPRESSION OF ANTI-AGING GENE KLOTHO” (KLOTHO SCIENCES, priority 2021, published 2024).

Tests used:
human klotho gene [1] = test: Luciferase expression experiment, human klotho promoter reporter (1.7 kbp / 240 bp) in RPTEC cells; type: cell-based; conditions: 5 μM, 24 hours, compared among Comparative Examples 1 to 4, FIG. 1
Method: (§1) In order to evaluate whether the klotho gene was expressed by the evaluation of luciferase activity, human renal proximal tubule epithelial cells (RPTECs) (ATCC CRL-4031), which are epithelial cells of the proximal tubule of the human kidneys, were purchased from Lonza, USA and used.
(§2) For culturing, a Renal Epithelial Growth Medium (REGM™) Bullet kit, also manufactured by the same Lonza company, was used, and the cells were cultured under conditions of 37° C. and 5% CO2. As a plasmid for luciferase expression, a plasmid in which the promoter site of a human KL (klotho) gene was disposed to regulate the expression of a firefly luciferase gene was used.
The plasmid was incorporated into cells using an X-treme GENE transfection reagent from Roche. The activity of luciferase expressed in cells was measured using a Dual-Luciferase reporter assay system manufactured by Promega. After the cultured cells were treated with each compound at an indicated concentration for 24 hours, the activity of luciferase was measured. It is indirectly shown that the expression of the klotho gene may be increased when the activity of luciferase is high. […]

human klotho gene [2] = test: Luciferase expression experiment, reporter gene pHKP-luc (promoter up to -2.1 kb upstream of the human klotho gene) in RPTECs; type: cell-based
Method: as §1, §2
The plasmid was incorporated into cells using an X-treme GENE transfection reagent from Roche. The activity of luciferase expressed in cells was measured using a Dual-Luciferase reporter assay system manufactured by Promega. After the cultured cells were treated with each compound at an indicated concentration for 24 hours, the activity of luciferase was measured. It is indirectly shown that the expression of the klotho gene may be increased when the activity of luciferase is high.
The results of confirming the expression of a reporter gene by treating RPTECs, which are epithelial cells of the proximal tubule of the human kidneys, with Examples 1 to 6 at concentrations of 0.5, 1 and 5 μM and Comparative Example 1 at a concentration of 5 μM and using a reporter gene (pHKP-luc) including a promoter included up to −2.1 kb upstream of the human klotho gene are illustrated in FIGS. 2 and 3.

klotho (KL) gene [3] = test: Quantitative evaluation of klotho (KL) gene expression level using real-time PCR in RPTEC cells; type: cell-based, human; conditions: RPTEC cells treated for 6 hours; vs Comparative Example 1; FIG. 4
Method: For RNA extraction from RPTEC cells, which are epithelial cells of the proximal tubule of the human kidneys, treated with the compounds of Comparative Example 1 and Examples 1 and 2 for 6 hours, an RNeasy kit from Qiagen Inc. was used. The results of preparing cDNA from extracted RNA using a Superscript II kit from Thermo Fisher Scientific, Inc. and performing the quantitative evaluation using Taqman Gene Expression assays from Applied Biosystems as a klotho (KL) gene-specific kit are illustrated in FIG. 4.

NeuN = NeuN immunohistochemistry of brain tissue sections, 5×FAD cognitive dysfunction animal model; type: in vivo; conditions: 5×FAD mice, 10 mg/kg p.o. daily, FIG. 10
Text: (§3) In this experiment, 5×FAD mice aged 4 months or 6 months were used. 5×FAD mice are Alzheimer's mice genetically modified to overproduce beta amyloid (Aβ, β amyloid) and were provided by the KIST Research Animal Resource Center, which maintains and sells them. Normal control (WT) mice, which are not genetically modified to overproduce β-amyloid (Aβ), were provided by the KIST Research Animal Resource Center. The animals were acclimatized for 1 week before the experiments. Mice were kept on an ad libitum diet in an animal room maintained at 22±2° C. and 40-60% humidity, and the light and dark cycles were controlled at 12-hour intervals. All animal experiments were performed in accordance with the animal care and use regulations of the Institutional Animal Care and Use Committee of the Korea Advanced Institute of Science and Technology (KIST).
(§4) Animal model mice and normal control mice received vehicle (5% DMSO+65% PEG400+30% Saline) or vehicle with KS1 (Example 10) dissolved in it orally (p.o.) at a concentration of 10 mg/kg daily for 4 or 12 weeks. Three mice were used per experimental group. The body weight was measured weekly during the treatment period, and after the end of the treatment, the cognitive function was tested and sacrificed, and the organs were harvested to confirm the changes through biochemical methods.
(§5) All data were expressed as mean (S.E.M), and differences between groups were determined using one-way ANOVA and Tukey's multiple comparisons test. When it was determined that there was a statistical difference, p<0.05 *, p<0.01 **, p<0.001 *** were indicated.
(§6) The fluorescence level of NeuN measured in each region (CTX: neocortex, CA: amygdala, DG: dentate gyrus) of brain tissue sections isolated from control (CTL) and KS1 1-month and 3-month treatment groups of 5×FAD cognitive dysfunction animal model and normal control animal model was investigated by Immunohistochemistry.

5×FAD mice [4] = test: Novel object recognition test (NOR) in 5×FAD mice; type: in vivo; conditions: 10 mg/kg p.o. daily, compared to vehicle, FIG. 11
Text: as §3, with “All animal experiments were performed in accordance with the animal care and use regulations of the Institutional Animal Care and Use Committee of the Korea Advanced Institute of Science and Technology (KIST).” left out
as §4, with “Three mice were used per experimental group.” left out
The novel object recognition test is a modification of the existing method and consists of an adaptation period, an exploration period, and a novel object recognition period. […] The next day, one of the objects was replaced with a new object and the animal's movement was measured for 10 minutes. […]

HT22 cells [5] = test: Neuronal inflammation inhibition, LPS-induced cytotoxicity (Cyto X cell viability assay); type: cell-based, mouse; conditions: 2.5 μM, LPS 1 μg/mL 24 hours, FIG. 8
Method: (§7) HT22 cells, neuronal cells derived from mouse hippocampus, were cultured in DMEM culture medium supplemented with 10% FBS. Cell cultures were incubated in a 37° C. incubator at 5% CO2, and when the cells grew to saturate the surface of the culture dish by 80%, they were treated with 0.05% trypsin and transferred to new culture dishes for passage. The compound was added to the medium at each passage to maintain a final concentration of 2.5 μM. Cells with only DMSO as solvent were used as a negative control, and cells from three passages (#5) were used as a non-aging control. All senescent cells were cultured in 20 passages (#25).
Cells were seeded at 10,000 cells in 160 μl of medium into each well of a 96-well plate and incubated in a 37° C. incubator at 5% CO^2 for 24 h. The compounds were added to the culture medium to a final concentration of 2.5 μM. After incubation, LPS (lipopolysaccharide) from Cell application was added at a concentration of 1 μg/mL and incubated for another 24 hours. The Cyto X cell viability assay kit from the same company was then added 20 μl to each well and incubated for 1 to 4 hours. The color change was then measured at 450 nm.

5×FAD mice [6] = test: Passive avoidance experiment in 5×FAD mice; type: in vivo; conditions: 10 mg/kg p.o. daily for 4 weeks, compared to normal mice, FIG. 12
Text: as §3, with “All animal experiments were performed in accordance with the animal care and use regulations of the Institutional Animal Care and Use Committee of the Korea Advanced Institute of Science and Technology (KIST).” left out
as §4, with “Three mice were used per experimental group.” left out, “methods. […]” for “methods.”
as §5

phospho-Tau = phospho-Tau immunohistochemistry of brain tissue sections, 5×FAD cognitive dysfunction animal model; type: in vivo; conditions: 5×FAD mice, 10 mg/kg p.o. daily, FIG. 9
Text: as §3, §4, §5
as §6, with “levels” for “level”, “phospho-Tau” for “NeuN”, “(HPC: hippocampus; CTX: neocortex)” for “(CTX: neocortex, CA: amygdala, DG: dentate gyrus)”, “were” for “was”

[7] = system: human kidney-2 (HK2) cells; test: Toxicity test, EZ-Cytox kit; type: cell-based; conditions: 12.5 μM or 25 μM, 24 hours, FIG. 6
Method: Cultured human kidney-2 (HK2) cells were treated with Comparative Example 1, Example 2 and Examples 9 to 10 at a concentration of 25 μM or 12.5 μM, and after 24 hours, cytotoxicity was measured using an EZ-Cytox kit.

klotho (KL) gene [8] = test: Quantitative evaluation of klotho (KL) gene expression level using general PCR in RPTEC cells; type: cell-based, human; conditions: 2.5 μM, 6 hours, FIG. 5
Method: After RPTEC cells, which are epithelial cells of the proximal tubule of the human kidneys, were each treated with the compounds of Examples 7 to 10 at 2.5 μM for 6 hours, RNA was extracted from the cells, and cDNA was prepared from the extracted RNA using a Superscript II kit from Thermo Fisher Scientific, Inc., and then general PCR was performed.
Information on the primers used in the experiment is as follows. • KL-F […] (SEQ ID NO: 1) • KL-R […] (SEQ ID NO: 2) • GAPDH-F […] (SEQ ID NO: 3) • GAPDH-R […] (SEQ ID NO: 4)
The DNA amplified by PCR was confirmed by staining with ethidium bromide after electrophoresis on an agarose gel, and the amounts of DNA in the band were quantitatively compared using the SPEedyQuant program, and are illustrated in FIG. 5.

HT22 cells [9] = test: Neuronal senescence inhibition, senescence β-galactosidase staining; type: cell-based, mouse; conditions: FIG. 7
Method: as §7
To check the degree of senescence of the cells, “Senescence β-galactosidase staining kit” from Cell Signaling Technology was used. The staining solution was added to the cells on the day of the experiment and the stained cells were checked 8 hours later. The number of stained cells was determined and expressed as a percentage of the total number of cells observed under a 200× microscope, and the number of stained cells in three different locations per sample was counted and averaged. As the expression of β-galactosidase enzyme increases as the aging of cells progresses, stained cells can be judged as more aged cells than unstained cells.

[10] = RPTECs, Examples at 0.5, 1 and 5 μM vs Comparative Example 1 at 5 μM, FIG. 2

SMILES: O=C(Nc1ccccc1Cl)c1c[nH]c2ccccc12 [Comparative Example 1, N-(2-chlorophenyl)-1H-indole-3-carboxamide]
- luciferase activity (human klotho gene [1]): the highest

SMILES: O=C(Nc1nc2ccccc2o1)c1ccc([N+](=O)[O-])cc1Cl [Example 1, N-(benzo[d]oxazol-2-yl)-2-chloro-4-nitrobenzamide]
- expression of the reporter gene (pHKP-luc) (human klotho gene [2]; [10]): level similar to that of Comparative Example 1

SMILES: Cc1ccc2oc(Nc3ccc(Cl)c(Cl)c3)nc2c1 [Example 2]
- expression of the reporter gene (pHKP-luc) (human klotho gene [2]; RPTEC cells, 5 μM, vs Comparative Example 1, FIG. 3): level similar to that of Comparative Example 1
- expression of the reporter gene (pHKP-luc) (human klotho gene [2]; [10]): level similar to that of Comparative Example 1
- klotho (KL) gene mRNA expression level, real-time PCR (klotho (KL) gene [3]): level similar to that of Comparative Example 1

SMILES: Fc1ccc(Nc2nc3ccccc3o2)cc1F [Example 10, N-(3,4-difluorophenyl)benzo[d]oxazol-2-amine]
- expression of NeuN neuromarker protein (NeuN; compared to vehicle): increased to a statistically significant level
- NeuN, Cornu Ammonis (CA) (NeuN): an increase in NeuN was confirmed
- NeuN, dentate gyrus (DG) (NeuN): no significant increase
- NeuN, primary somatosensory cortex (CTX) (NeuN): no significant increase
- object detection ability (NOR) (5×FAD mice [4]): statistically significant increase in object detection ability
- percentage of cells killed by LPS treatment (HT22 cells [5]; HT22 cells cultured for 5 passages, DMSO control 50%): 45%
- percentage of cells killed by LPS treatment (HT22 cells [5]; HT22 cells cultured for 20 passages, DMSO control about 80%): 60%
- spatial learning and memory performance, passive avoidance test (5×FAD mice [6]): maintained a similar level of performance to normal mice
- expression of phospho-Tau protein, hippocampus (HPC) region (phospho-Tau; 1-month and 3-month treatment): reduced expression of the proteins was seen in only the 3-month treated mice
- expression of phospho-Tau protein, primary somatosensory cortex (CTX) region (phospho-Tau; 1-month and 3-month treatment): reduced expression of the proteins was seen in both 1- and 3-month treated mice
- expression of phospho-Tau protein (phospho-Tau; compared to vehicle): reduced to a statistically significant level
- cytotoxicity [7]: the least toxicity
- improvement of toxicity compared to Comparative Example 1 [7]: ≥ 20%
- expression level of the klotho (KL) gene relative to Comparative Example 1 (klotho (KL) gene [8]): about 10 times
- β-galactosidase stained cells as a percentage of the total number of cells (HT22 cells [9]; HT22 cells cultured for 20 passages, 2.5 μM in the medium, DMSO control about 50%): 40%
- decrease in the degree of senescence compared to cells grown in medium containing DMSO (HT22 cells [9]; HT22 cells, 20 passages, 2.5 μM): 20%
